The results in this text go back to ChEMBL document CHEMBL2074472, “In vitro and in vivo reversal of cancer cell multidrug resistance by the semi-synthetic antibiotic tiamulin” (Biochem Pharmacol, 1998).

Format in all cases: functional, cell-based
The target in series [1] is ATP-dependent translocase ABCB1 (Homo sapiens, UniProt P08183). In words: TP_TRANSPORTER: increase in Daunomycin intracellular accumulation (Daunomycin: 1.9 uM, Tiamulin: 2 uM) in CEM/VLB3.6 cells, flow cytometry. To be noted: cem/vlb3.6, 2 µM. (In general: In flow cytometry, cells or beads pass a laser one at a time.)
The target in series [2] is ATP-dependent translocase ABCB1 (Mus musculus, UniProt P21447). In words: TP_TRANSPORTER: increase in Daunomycin intracellular accumulation (Daunomycin: 1.9 uM, Tiamulin: 2 uM) in P388/ADR25 cells, flow cytometry. Particulars: p388/adr25, 2 µM.
Series [3] addresses Multidrug resistance protein 1a (Rattus norvegicus) (UniProt Q6PSM0). In words: TP_TRANSPORTER: increase in Daunomycin intracellular accumulation (Daunomycin: 1.9 uM, Tiamulin: 2 uM) in AS30-D/COL10 cells, flow cytometry.

Sequence of ATP-dependent translocase ABCB1 (Mus musculus, UniProt P21447) (P21447 whole entry): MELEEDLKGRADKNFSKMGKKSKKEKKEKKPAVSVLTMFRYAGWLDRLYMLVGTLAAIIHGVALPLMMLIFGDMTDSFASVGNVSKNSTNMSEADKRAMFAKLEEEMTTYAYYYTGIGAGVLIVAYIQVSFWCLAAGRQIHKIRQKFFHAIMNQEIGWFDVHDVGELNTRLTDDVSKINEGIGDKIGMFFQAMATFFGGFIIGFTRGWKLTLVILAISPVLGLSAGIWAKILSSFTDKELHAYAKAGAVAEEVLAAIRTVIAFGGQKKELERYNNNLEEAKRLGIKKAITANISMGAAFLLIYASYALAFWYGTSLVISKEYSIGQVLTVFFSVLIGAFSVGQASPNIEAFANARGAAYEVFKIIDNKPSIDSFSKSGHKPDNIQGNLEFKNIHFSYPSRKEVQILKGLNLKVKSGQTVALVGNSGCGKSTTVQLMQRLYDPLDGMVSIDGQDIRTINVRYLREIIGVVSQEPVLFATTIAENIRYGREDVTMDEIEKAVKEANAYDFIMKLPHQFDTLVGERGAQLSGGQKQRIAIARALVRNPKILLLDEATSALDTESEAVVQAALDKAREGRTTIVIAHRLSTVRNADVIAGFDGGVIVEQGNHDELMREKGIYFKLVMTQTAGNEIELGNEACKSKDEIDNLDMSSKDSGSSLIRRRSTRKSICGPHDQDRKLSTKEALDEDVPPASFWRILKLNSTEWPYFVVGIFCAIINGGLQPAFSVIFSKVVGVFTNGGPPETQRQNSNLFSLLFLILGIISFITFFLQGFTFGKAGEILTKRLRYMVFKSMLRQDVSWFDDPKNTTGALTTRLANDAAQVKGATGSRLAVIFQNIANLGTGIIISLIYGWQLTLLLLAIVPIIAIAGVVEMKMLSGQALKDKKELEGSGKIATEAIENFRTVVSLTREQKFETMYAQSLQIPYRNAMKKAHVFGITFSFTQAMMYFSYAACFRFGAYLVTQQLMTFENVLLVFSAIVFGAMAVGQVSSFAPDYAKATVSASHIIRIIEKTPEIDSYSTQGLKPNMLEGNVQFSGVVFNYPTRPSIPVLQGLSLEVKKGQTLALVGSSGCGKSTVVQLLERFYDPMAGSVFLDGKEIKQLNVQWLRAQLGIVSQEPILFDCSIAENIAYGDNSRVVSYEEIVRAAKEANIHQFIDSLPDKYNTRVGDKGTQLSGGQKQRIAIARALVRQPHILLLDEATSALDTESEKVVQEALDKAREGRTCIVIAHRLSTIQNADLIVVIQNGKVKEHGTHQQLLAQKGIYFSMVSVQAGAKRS
Sequence of Multidrug resistance protein 1a (Rattus norvegicus) (Q6PSM0 as listed by the source): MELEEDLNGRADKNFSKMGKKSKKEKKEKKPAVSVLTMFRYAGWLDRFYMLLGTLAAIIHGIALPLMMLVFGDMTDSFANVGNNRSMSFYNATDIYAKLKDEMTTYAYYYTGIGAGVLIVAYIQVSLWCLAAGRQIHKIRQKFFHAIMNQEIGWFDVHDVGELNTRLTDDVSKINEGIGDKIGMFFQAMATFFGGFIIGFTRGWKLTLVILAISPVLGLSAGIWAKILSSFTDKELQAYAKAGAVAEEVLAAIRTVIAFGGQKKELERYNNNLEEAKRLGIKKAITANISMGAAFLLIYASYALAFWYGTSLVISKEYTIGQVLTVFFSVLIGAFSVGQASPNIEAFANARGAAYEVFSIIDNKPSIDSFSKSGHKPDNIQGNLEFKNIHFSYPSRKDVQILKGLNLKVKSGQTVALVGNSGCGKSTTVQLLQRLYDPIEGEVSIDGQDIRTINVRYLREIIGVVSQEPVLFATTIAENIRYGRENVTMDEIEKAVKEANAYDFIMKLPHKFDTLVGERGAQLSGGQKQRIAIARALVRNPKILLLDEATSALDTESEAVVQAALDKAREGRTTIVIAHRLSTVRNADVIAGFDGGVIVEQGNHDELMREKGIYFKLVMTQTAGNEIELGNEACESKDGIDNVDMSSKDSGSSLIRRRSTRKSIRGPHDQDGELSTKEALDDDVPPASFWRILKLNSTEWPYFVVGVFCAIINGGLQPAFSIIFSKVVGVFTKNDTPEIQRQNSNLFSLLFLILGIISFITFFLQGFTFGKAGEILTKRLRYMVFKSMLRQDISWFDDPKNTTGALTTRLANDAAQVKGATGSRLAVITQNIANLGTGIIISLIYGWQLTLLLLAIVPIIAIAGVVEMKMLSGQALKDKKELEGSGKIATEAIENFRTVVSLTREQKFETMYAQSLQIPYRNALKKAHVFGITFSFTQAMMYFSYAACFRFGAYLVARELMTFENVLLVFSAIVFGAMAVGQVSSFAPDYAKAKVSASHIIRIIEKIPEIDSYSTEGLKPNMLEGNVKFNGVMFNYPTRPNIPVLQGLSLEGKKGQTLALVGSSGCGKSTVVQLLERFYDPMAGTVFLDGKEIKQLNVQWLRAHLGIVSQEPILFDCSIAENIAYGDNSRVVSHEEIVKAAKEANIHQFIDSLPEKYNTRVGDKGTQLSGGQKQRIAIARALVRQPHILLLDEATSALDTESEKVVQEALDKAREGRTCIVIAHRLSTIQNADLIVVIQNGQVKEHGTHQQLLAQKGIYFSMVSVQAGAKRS
Sequence of ATP-dependent translocase ABCB1 (Homo sapiens, UniProt P08183) (P08183 whole entry): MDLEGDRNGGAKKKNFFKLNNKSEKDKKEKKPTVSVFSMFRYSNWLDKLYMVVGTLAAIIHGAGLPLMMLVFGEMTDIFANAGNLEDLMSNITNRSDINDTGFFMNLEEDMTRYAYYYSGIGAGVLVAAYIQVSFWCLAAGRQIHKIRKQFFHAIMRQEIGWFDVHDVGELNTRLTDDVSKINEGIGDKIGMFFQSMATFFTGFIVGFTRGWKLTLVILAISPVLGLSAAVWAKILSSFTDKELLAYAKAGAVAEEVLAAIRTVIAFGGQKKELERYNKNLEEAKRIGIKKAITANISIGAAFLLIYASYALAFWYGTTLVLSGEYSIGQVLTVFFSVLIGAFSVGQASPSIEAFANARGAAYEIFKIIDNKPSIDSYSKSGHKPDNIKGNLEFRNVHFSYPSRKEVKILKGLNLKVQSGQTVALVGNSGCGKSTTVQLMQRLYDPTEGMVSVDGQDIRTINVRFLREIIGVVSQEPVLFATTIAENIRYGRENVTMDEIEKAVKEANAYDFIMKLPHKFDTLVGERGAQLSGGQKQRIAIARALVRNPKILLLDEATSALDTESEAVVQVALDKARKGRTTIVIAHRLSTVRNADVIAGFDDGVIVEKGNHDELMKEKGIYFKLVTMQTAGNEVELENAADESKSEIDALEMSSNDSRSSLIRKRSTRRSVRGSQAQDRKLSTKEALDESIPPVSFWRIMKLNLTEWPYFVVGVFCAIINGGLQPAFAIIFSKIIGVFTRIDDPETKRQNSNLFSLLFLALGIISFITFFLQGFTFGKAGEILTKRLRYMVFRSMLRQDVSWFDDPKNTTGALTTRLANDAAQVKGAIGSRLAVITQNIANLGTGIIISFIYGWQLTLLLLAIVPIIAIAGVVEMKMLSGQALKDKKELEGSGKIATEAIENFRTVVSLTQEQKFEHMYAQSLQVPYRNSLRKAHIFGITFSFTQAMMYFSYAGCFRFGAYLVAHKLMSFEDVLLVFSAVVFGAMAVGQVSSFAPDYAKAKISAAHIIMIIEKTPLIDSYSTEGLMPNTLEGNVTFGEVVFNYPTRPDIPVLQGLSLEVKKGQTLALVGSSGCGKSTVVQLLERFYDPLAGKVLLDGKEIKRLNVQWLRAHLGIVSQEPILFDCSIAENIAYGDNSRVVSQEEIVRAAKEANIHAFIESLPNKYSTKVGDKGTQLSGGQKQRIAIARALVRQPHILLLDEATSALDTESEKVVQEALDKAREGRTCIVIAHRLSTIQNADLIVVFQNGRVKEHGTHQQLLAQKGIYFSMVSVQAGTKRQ

Turning to `C=C[C@]1(C)C[C@@H](OC(=O)CSCCN(CC)CC)[C@]2(C)[C@H](C)CC[C@]3(CCC(=O)[C@H]32)[C@@H](C)[C@@H]1O` [TIAMULIN], the Activity entry in series [1], in series [2] and in series [3] was “inhibitor [+]” each time.
